According to patent US9540343B2 (Gilead Sciences, Inc., priority 2011, dated 2017):

How the values were obtained:
[1] = test system: HIV-IIIb; assay: Test A: Antiviral assay in MT4 cells; type: cell-based, HIV-1; conditions: Human immunodeficiency virus 1, IIIB, MT4, 120 h, read-out: % inhibition at 2 μM, percent inhibition of virus-induced cell killing, from dose response curve at 2 uM drug; MT-4 cells infected with HIV-IIIb, 5 days, CellTiter-Glo
[2] = in vitro; conditions: human, uninfected MT-4 cells, CC50 (nM), same protocol as Test A, CellTiter-Glo
How it was run: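 Cytoprotection read-out: CellTiter-Glo chemiluminescence after 5 days at 37 °C of HIV-IIIb-infected MT-4 cells (m.o.i. 0.003) with compound in 10-point 3-fold dilutions, quadruplicate, 10% FBS. Cytotoxicity (CC50) measured identically without virus.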

Row | Structure (SMILES) | inhibition at 2 µM [1] | CC50 at 5 days [2]
1 | NC(=O)c1cc(-c2cccnc2[C@H](Cc2cc(F)cc(F)c2)NC(=O)[C@@H]2C[C@H](Oc3ccccc3)CN2)ccc1F [Example 165, (2S,4S)—N—((S)-1-(3-(3-carbamoyl-4-fluorophenyl)pyridin-2-yl)-2-(3,5-difluorophenyl)ethyl)-4-phenoxypyrrolidine-2-carboxamide] | 0% | 52500 nM
2 | COc1ccc(-c2cccnc2[C@@H](Cc2ccccc2)NC(=O)Cn2nc(C(F)(F)F)c3c2CCCC3)c(C)c1 [Example 18, (R)—N-(1-(3-(4-methoxy-2-methylphenyl)pyridin-2-yl)-2-phenylethyl)-2-(3-(trifluoromethyl)-4,5,6,7-tetrahydro-1H-indazol-1-yl)acetamide] | 0% | 14600 nM
3 | NC(=O)c1cc(-c2cccnc2[C@H](Cc2cc(F)cc(F)c2)NC(=O)Cc2n[nH]c3ccccc23)ccc1F [Example 469, 5-(2-(1-(2-(1H-indazol-3-yl)acetamido)-2-(3,5-difluorophenyl)ethyl)pyridin-3-yl)-2-fluorobenzamide] | 17% | > 53200 nM
4 | Cc1cccc2[nH]cc(CC(=O)N[C@@H](Cc3cc(F)cc(F)c3)c3ncccc3-c3cccc(C(N)=O)c3)c12 [Example 481, (S)-3-(2-(2-(3,5-difluorophenyl)-1-(2-(4-methyl-1H-indol-3-yl)acetamido)ethyl)pyridin-3-yl)benzamide] | 53% | 22900 nM
5 | CN1Cc2c(C(F)(F)F)nn(CC(=O)N[C@@H](Cc3cc(F)cc(F)c3)c3ncccc3-c3ccc(F)c(C(N)=O)c3)c2C1 [Example 235, (S)-5-(2-(2-(3,5-difluorophenyl)-1-(2-(5-methyl-3-(trifluoromethyl)-5,6-dihydropyrrolo[3,4-c]pyrazol-1(4H)-yl)acetamido)ethyl)pyridin-3-yl)-2-fluorobenzamide] | 12% | > 53200 nM
6 | O=C(Cn1nc(C(F)F)c2c1C(F)(F)CCC2(F)F)N[C@@H](Cc1cc(F)cc(F)c1)c1ncncc1-c1ccc(Cl)cc1 [Example 524D, (S)—N-(1-(5-(4-chlorophenyl)pyrimidin-4-yl)-2-(3,5-difluorophenyl)ethyl)-2-(3-(difluoromethyl)-4,4,7,7-tetrafluoro-4,5,6,7-tetrahydro-1H-indazol-1-yl)acetamide] | 78% | 8530 nM
7 | Cc1cc2[nH]cc(CC(=O)N[C@@H](Cc3cc(F)cc(F)c3)c3ncccc3-c3cccc(C(N)=O)c3)c2cc1O [Example 593, (S)-3-(2-(2-(3,5-difluorophenyl)-1-(2-(5-hydroxy-6-methyl-1H-indol-3-yl)acetamido)ethyl)pyridin-3-yl)benzamide] | 52% | > 53000 nM
8 | Cc1nc(C(F)(F)F)nn1CC(=O)N[C@@H](Cc1cc(F)cc(F)c1)c1ncccc1-c1ccc(F)c(C(N)=O)c1 [Example 374, (S)-5-(2-(2-(3,5-difluorophenyl)-1-(2-(5-methyl-3-(trifluoromethyl)-1H-1,2,4-triazol-1-yl)acetamido)ethyl)pyridin-3-yl)-2-fluorobenzamide] | 5% | > 53200 nM
9 | COC(=O)c1nn(CC(=O)N[C@@H](Cc2cc(F)cc(F)c2)c2ncccc2-c2ccc(F)c(C(N)=O)c2)c2c1COC2 [Example 452C, (S)-methyl 1-(2-((1-(3-(3-carbamoyl-4-fluorophenyl)pyridin-2-yl)-2-(3,5-difluorophenyl)ethyl)amino)-2-oxoethyl)-4,6-dihydro-1H-furo[3,4-c]pyrazole-3-carboxylate] | 4% | 9070 nM
10 | COc1ccc(-c2cccnc2C(Cc2cc(F)cc(F)c2)NC(=O)Cn2nc(C(F)(F)F)c3c2CCCC3)c(C)c1 (stereo not drawn) [Example 6, N-(2-(3,5-difluorophenyl)-1-(3-(4-methoxy-2-methylphenyl)pyridin-2-yl)ethyl)-2-(3-(trifluoromethyl)-4,5,6,7-tetrahydro-1H-indazol-1-yl)acetamide] | 45% | 11400 nM
11 | O=C(Cn1nc(C(F)(F)F)c2c1CCCC2)N[C@@H](Cc1cc(F)cc(F)c1)c1ncccc1-c1cccc(F)c1 [Example 117, (S)—N-(2-(3,5-difluorophenyl)-1-(3-(3-fluorophenyl)pyridin-2-yl)ethyl)-2-(3-(trifluoromethyl)-4,5,6,7-tetrahydro-1H-indazol-1-yl)acetamide] | 89% | 8260 nM
12 | COc1ccc(-c2cccnc2[C@H](Cc2cc(F)cc(F)c2)NC(=O)Cn2nc(C(F)(F)F)c3c2CCCC3)cc1 [Example 30, (S)—N-(2-(3,5-difluorophenyl)-1-(3-(4-methoxyphenyl)pyridin-2-yl)ethyl)-2-(3-(trifluoromethyl)-4,5,6,7-tetrahydro-1H-indazol-1-yl)acetamide] | 76% | 11900 nM
13 | NC(=O)c1cc(-c2cccnc2[C@H](Cc2cc(F)cc(F)c2)NC(=O)Cn2nc(C(F)(F)F)c3c2CCNC3)ccc1F [Example 303, (S)-5-(2-(2-(3,5-difluorophenyl)-1-(2-(3-(trifluoromethyl)-4,5,6,7-tetrahydro-1H-pyrazolo[4,3-c]pyridin-1-yl)acetamido)ethyl)pyridin-3-yl)-2-fluorobenzamide] | 14% | 35500 nM
14 | C=Cc1cn(CC(=O)N[C@@H](Cc2cc(F)cc(F)c2)c2ncccc2-c2ccc(F)c(C(N)=O)c2)nc1C(F)(F)F [Example 297, (S)-5-(2-(2-(3,5-difluorophenyl)-1-(2-(3-(trifluoromethyl)-4-vinyl-1H-pyrazol-1-yl)acetamido)ethyl)pyridin-3-yl)-2-fluorobenzamide] | 14% | 23300 nM
15 | NC(=O)c1cc(-c2cccnc2[C@H](Cc2cc(F)cc(F)c2)NC(=O)Cn2nc(C(F)(F)F)c3c2CCSC3)ccc1F [Example 232, (S)-5-(2-(2-(3,5-difluorophenyl)-1-(2-(3-(trifluoromethyl)-6,7-dihydrothiopyrano[4,3-c]pyrazol-1(4H)-yl)acetamido)ethyl)pyridin-3-yl)-2-fluorobenzamide] | 61% | 18700 nM
16 | NC(=O)c1cc(-c2cccnc2[C@H](Cc2cc(F)cc(F)c2)NC(=O)Cn2nc(C=O)c3c2C2CCC3C2)ccc1F (stereo partly drawn) [Example 403, (S)-5-(2-(2-(3,5-difluorophenyl)-1-(2-(4,5,6,7-tetrahydro-3-formyl-4,7-(methano)indazol-1-yl)acetamido)ethyl)pyridin-3-yl)-2-fluorobenzamide] | 112% | 10500 nM
17 | CCc1c(C#CC(C)(C)C)c(C(F)(F)F)nn1CC(=O)N[C@@H](Cc1cc(F)cc(F)c1)c1ncccc1-c1ccc(F)c(C(N)=O)c1 [Example 280, (S)-5-(2-(2-(3,5-difluorophenyl)-1-(2-(4-(3,3-dimethylbut-1-ynyl)-5-ethyl-3-(trifluoromethyl)-1H-pyrazol-1-yl)acetamido)ethyl)pyridin-3-yl)-2-fluorobenzamide] | 0% | 4180 nM
18 | Cc1cc2cc(F)ccc2n1CC(=O)N[C@@H](Cc1cc(F)cc(F)c1)c1ncccc1-c1cccc(C(N)=O)c1 [Example 575B, (S)-3-(2-(2-(3,5-difluorophenyl)-1-(2-(5-fluoro-2-methyl-1H-indol-1-yl)acetamido)ethyl)pyridin-3-yl)benzamide] | 14% | 17400 nM
